Measured values as given in ChEMBL document CHEMBL3885881, “DrugMatrix”.

Organism: Rattus norvegicus
Assay: DrugMatrix - Regimen: Daily Repeat
Assay type: toxicity, organism-based, Sprague-Dawley
Set-up: regimen Daily Repeat, gender Male, age 6-8 weeks
Settings: in vivo, po, route oral GAVAGE, […]; for ABSOLUTE BASOPHIL / ABSOLUTE EOSINOPHIL / ABSOLUTE LYMPHOCYTE / ABSOLUTE MONOCYTE / ABSOLUTE SEGMENTED NEUTROPHIL / BASOPHIL / EOSINOPHIL / ERYTHROCYTE COUNT / HEMATOCRIT / HEMOGLOBIN / LEUKOCYTE COUNT / LYMPHOCYTE / MEAN CORPUSCULAR HEMOGLOBIN / MEAN CORPUSCULAR HEMOGLOBIN CONCENTRATION / MEAN CORPUSCULAR VOLUME / MONOCYTE / NEUTROPHIL / NUCLEATED RED BLOOD CELLS / PLATELET COUNT: tissue Blood; for ALANINE AMINOTRANSFERASE / ALBUMIN / ALKALINE PHOSPHATASE / ASPARTATE AMINOTRANSFERASE / BLOOD UREA NITROGEN / CARBON DIOXIDE / CHLORIDE / CHOLESTEROL / CREATINE PHOSPHOKINASE / CREATININE / GLUCOSE / LACTATE DEHYDROGENASE / LIPASE / PHOSPHORUS / POTASSIUM / SODIUM / TOTAL BILIRUBIN / TOTAL PROTEIN / URIC ACID: tissue Plasma
[1] = 10 mg/kg, 72 h, dose level Low, time 3 day
[2] = 10 mg/kg, 120 h, dose level Low, time 5 day
[3] = 75 mg/kg, 72 h, dose level High, time 3 day
[4] = 75 mg/kg, 120 h, dose level High, time 5 day

With `NC(=O)N1C(=O)/C(=C(\O)c2cccs2)c2cc(Cl)ccc21` [TENIDAP] the “ABSOLUTE BASOPHIL” value [1] was 0 CELLS/uL, the “ABSOLUTE EOSINOPHIL” value [1] was 204 CELLS/uL and the “ABSOLUTE LYMPHOCYTE” value [1] was 13523 CELLS/uL. The “ABSOLUTE MONOCYTE” value [1] was 155.33 CELLS/uL, the “ABSOLUTE SEGMENTED NEUTROPHIL” value [1] was 1651 CELLS/uL and the BASOPHIL [1] was 0%. For the same compound, the EOSINOPHIL [1] was 1.33%, the “ERYTHROCYTE COUNT” value [1] was 5.32 x10E6/uL and the HEMATOCRIT [1] was 33.53%. For the same compound, the HEMOGLOBIN [1] was 13.33 G/DL, the “LEUKOCYTE COUNT” value [1] was 15.53 x10E3/uL and the LYMPHOCYTE [1] was 86.67%. The “MEAN CORPUSCULAR HEMOGLOBIN” value [1] was 25.03 pg, the “MEAN CORPUSCULAR HEMOGLOBIN CONCENTRATION” value [1] was 39.73 G/DL and the “MEAN CORPUSCULAR VOLUME” value [1] was 62.97 fL. The MONOCYTE [1] was 1%, the NEUTROPHIL [1] was 11% and the “NUCLEATED RED BLOOD CELLS” value [1] was 0 /100WBC. For the same compound, the “PLATELET COUNT” value [1] was 1066.67 x10E3/uL, the “ALANINE AMINOTRANSFERASE” value [1] was 83.33 u/L and the ALBUMIN [1] was 3.87 G/DL. For the same compound, the “ALKALINE PHOSPHATASE” value [1] was 429.33 u/L, the “ASPARTATE AMINOTRANSFERASE” value [1] was 109.67 u/L and the “BLOOD UREA NITROGEN” value [1] was 11 mg/dL. The “CARBON DIOXIDE” value [1] was 23.67 mmol/L, the CHLORIDE [1] was 102.67 MEQ/L and the CHOLESTEROL [1] was 63.67 mg/dL. For the same compound, the “CREATINE PHOSPHOKINASE” value [1] was 779.67 u/L, the CREATININE [1] was 0.2 mg/dL and the GLUCOSE [1] was 169 mg/dL. For the same compound, the “LACTATE DEHYDROGENASE” value [1] was 223.67 u/L, the LIPASE [1] was 12 u/L and the PHOSPHORUS [1] was 11.47 mg/dL. For the same compound, the POTASSIUM [1] was 5.98 MEQ/L, the SODIUM [1] was 143.97 MEQ/L and the “TOTAL BILIRUBIN” value [1] was 0.17 mg/dL. For the same compound, the “TOTAL PROTEIN” value [1] was 5.27 G/DL, the “URIC ACID” value [1] was 1.43 mg/dL and the “ABSOLUTE BASOPHIL” value [2] was 0 CELLS/uL. The “ABSOLUTE EOSINOPHIL” value [2] was 83.67 CELLS/uL, the “ABSOLUTE LYMPHOCYTE” value [2] was 10624.67 CELLS/uL and the “ABSOLUTE MONOCYTE” value [2] was 83.67 CELLS/uL. For the same compound, the “ABSOLUTE SEGMENTED NEUTROPHIL” value [2] was 1674.67 CELLS/uL, the BASOPHIL [2] was 0% and the EOSINOPHIL [2] was 0.67%. For the same compound, the “ERYTHROCYTE COUNT” value [2] was 5.4 x10E6/uL, the HEMATOCRIT [2] was 33.6% and the HEMOGLOBIN [2] was 13.33 G/DL. For the same compound, the “LEUKOCYTE COUNT” value [2] was 12.47 x10E3/uL, the LYMPHOCYTE [2] was 85.33% and the “MEAN CORPUSCULAR HEMOGLOBIN” value [2] was 24.7 pg. For the same compound, the “MEAN CORPUSCULAR HEMOGLOBIN CONCENTRATION” value [2] was 39.67 G/DL, the “MEAN CORPUSCULAR VOLUME” value [2] was 62.27 fL and the MONOCYTE [2] was 0.67%. For the same compound, the NEUTROPHIL [2] was 13.33%, the “NUCLEATED RED BLOOD CELLS” value [2] was 0 /100WBC and the “PLATELET COUNT” value [2] was 1241 x10E3/uL. For the same compound, the “ALANINE AMINOTRANSFERASE” value [2] was 56.33 u/L, the ALBUMIN [2] was 4.13 G/DL and the “ALKALINE PHOSPHATASE” value [2] was 448.67 u/L. For the same compound, the “ASPARTATE AMINOTRANSFERASE” value [2] was 103.33 u/L, the “BLOOD UREA NITROGEN” value [2] was 13 mg/dL and the “CARBON DIOXIDE” value [2] was 33.67 mmol/L. For the same compound, the CHLORIDE [2] was 100.33 MEQ/L, the CHOLESTEROL [2] was 58.33 mg/dL and the “CREATINE PHOSPHOKINASE” value [2] was 442.67 u/L. The CREATININE [2] was 0.21 mg/dL, the GLUCOSE [2] was 155 mg/dL and the “LACTATE DEHYDROGENASE” value [2] was 736.33 u/L. It also gave an LIPASE [2] of 11 u/L, a PHOSPHORUS [2] of 11.1 mg/dL and a POTASSIUM [2] of 6.31 MEQ/L. For the same compound, the SODIUM [2] was 144.37 MEQ/L, the “TOTAL BILIRUBIN” value [2] was 0.17 mg/dL and the “TOTAL PROTEIN” value [2] was 5.93 G/DL. For the same compound, the “URIC ACID” value [2] was 1.33 mg/dL, the “ABSOLUTE BASOPHIL” value [3] was 0 CELLS/uL and the “ABSOLUTE EOSINOPHIL” value [3] was 72 CELLS/uL. The “ABSOLUTE LYMPHOCYTE” value [3] was 18447.67 CELLS/uL, the “ABSOLUTE MONOCYTE” value [3] was 586.33 CELLS/uL and the “ABSOLUTE SEGMENTED NEUTROPHIL” value [3] was 3327.33 CELLS/uL. The BASOPHIL [3] was 0%, the EOSINOPHIL [3] was 0.33% and the “ERYTHROCYTE COUNT” value [3] was 5.15 x10E6/uL. The HEMATOCRIT [3] was 32.13%, the HEMOGLOBIN [3] was 13.03 G/DL and the “LEUKOCYTE COUNT” value [3] was 22.43 x10E3/uL. For the same compound, the LYMPHOCYTE [3] was 82%, the “MEAN CORPUSCULAR HEMOGLOBIN” value [3] was 25.3 pg and the “MEAN CORPUSCULAR HEMOGLOBIN CONCENTRATION” value [3] was 40.63 G/DL. The “MEAN CORPUSCULAR VOLUME” value [3] was 62.33 fL, the MONOCYTE [3] was 2.67% and the NEUTROPHIL [3] was 15%. The “NUCLEATED RED BLOOD CELLS” value [3] was 0 /100WBC, the “PLATELET COUNT” value [3] was 1275.33 x10E3/uL and the “ALANINE AMINOTRANSFERASE” value [3] was 41.67 u/L. For the same compound, the ALBUMIN [3] was 3.37 G/DL, the “ALKALINE PHOSPHATASE” value [3] was 301 u/L and the “ASPARTATE AMINOTRANSFERASE” value [3] was 107.33 u/L. The “BLOOD UREA NITROGEN” value [3] was 11.33 mg/dL, the “CARBON DIOXIDE” value [3] was 22.33 mmol/L and the CHLORIDE [3] was 100.33 MEQ/L. The CHOLESTEROL [3] was 64.67 mg/dL, the “CREATINE PHOSPHOKINASE” value [3] was 1284.33 u/L and the CREATININE [3] was 0.21 mg/dL. For the same compound, the GLUCOSE [3] was 168.67 mg/dL, the “LACTATE DEHYDROGENASE” value [3] was 492.67 u/L and the LIPASE [3] was 10 u/L. The PHOSPHORUS [3] was 11.63 mg/dL, the POTASSIUM [3] was 6.52 MEQ/L and the SODIUM [3] was 144.2 MEQ/L. For the same compound, the “TOTAL BILIRUBIN” value [3] was 0.13 mg/dL, the “TOTAL PROTEIN” value [3] was 5.17 G/DL and the “URIC ACID” value [3] was 2.97 mg/dL. The “ABSOLUTE BASOPHIL” value [4] was 0 CELLS/uL, the “ABSOLUTE EOSINOPHIL” value [4] was 26.67 CELLS/uL and the “ABSOLUTE LYMPHOCYTE” value [4] was 9823.33 CELLS/uL. The “ABSOLUTE MONOCYTE” value [4] was 49.33 CELLS/uL, the “ABSOLUTE SEGMENTED NEUTROPHIL” value [4] was 1634 CELLS/uL and the BASOPHIL [4] was 0%. For the same compound, the EOSINOPHIL [4] was 0.33%, the “ERYTHROCYTE COUNT” value [4] was 4.78 x10E6/uL and the HEMATOCRIT [4] was 30.53%. The HEMOGLOBIN [4] was 12.13 G/DL, the “LEUKOCYTE COUNT” value [4] was 11.53 x10E3/uL and the LYMPHOCYTE [4] was 87.67%. For the same compound, the “MEAN CORPUSCULAR HEMOGLOBIN” value [4] was 25.37 pg, the “MEAN CORPUSCULAR HEMOGLOBIN CONCENTRATION” value [4] was 39.73 G/DL and the “MEAN CORPUSCULAR VOLUME” value [4] was 63.83 fL. For the same compound, the MONOCYTE [4] was 0.67%, the NEUTROPHIL [4] was 11.33% and the “NUCLEATED RED BLOOD CELLS” value [4] was 0.33 /100WBC. The “PLATELET COUNT” value [4] was 1185.67 x10E3/uL, the “ALANINE AMINOTRANSFERASE” value [4] was 35.67 u/L and the ALBUMIN [4] was 3.53 G/DL. For the same compound, the “ALKALINE PHOSPHATASE” value [4] was 211 u/L, the “ASPARTATE AMINOTRANSFERASE” value [4] was 95 u/L and the “BLOOD UREA NITROGEN” value [4] was 13.67 mg/dL. The “CARBON DIOXIDE” value [4] was 33 mmol/L, the CHLORIDE [4] was 103.33 MEQ/L and the CHOLESTEROL [4] was 68 mg/dL. For the same compound, the “CREATINE PHOSPHOKINASE” value [4] was 655 u/L, the CREATININE [4] was 0.26 mg/dL and the GLUCOSE [4] was 158 mg/dL. For the same compound, the “LACTATE DEHYDROGENASE” value [4] was 243 u/L, the LIPASE [4] was 11 u/L and the PHOSPHORUS [4] was 9.87 mg/dL. For the same compound, the POTASSIUM [4] was 4.94 MEQ/L, the SODIUM [4] was 147 MEQ/L and the “TOTAL BILIRUBIN” value [4] was 0.2 mg/dL. For the same compound, the “TOTAL PROTEIN” value [4] was 5.43 G/DL and the “URIC ACID” value [4] was 1.03 mg/dL.
